Results: patent US10980723B2, “Non-aqueous composition for hair frizz reduction” (The Procter & Gamble Company, priority 2017, dated 2021)

Test: Hair Switch Frizz Assessment by ten expert graders
Conditions: for Results of Hair Switch Rating (frizz protection, clean feel, greasy feel) in words: aqueous compositions, Tables 3 and 4, 1% material; for Results of Hair Switch Rating (frizz protection, clean, smooth, greasy feel) in words: non-aqueous compositions, Tables 9 and 10, 1% material
Description: The leave-on treatment compositions are prepared by adding the Moisture Control Materials and perfume, if needed, into a 50:50 ethanol/water carrier and stirred until complete dissolution. The solution pH is adjusted using sodium hydroxide (50% w/w) to a final pH of 4.0-4.2. […] Method of Making Non-Aqueous Leave-on Treatment Compositions The non-aqueous leave-on treatment compositions are prepared by adding the Moisture Control Materials and perfume, if needed, into a mixture of Dimethiconol/Dimethicone and Cyclopentasiloxane/Isododecane and stirred until complete dissolution. Additionally, propylene glycol is added to aid in dissolution of moisture control materials at high levels of dimethicone. […] Method of Making of Non-Aqueous Leave-on Treatment Composition in a Solid Form The leave-on treatment composition in solid form is prepared by mixing together two different compositions. A premix and main-mix. […] In-Use Product Feel Assessment on Hair Switch Ten expert graders are asked to apply formulation on hair and rate each formulation based on a 5 point scale for in-use feel assessment, 5 being the highest (best feel) and 1 being the lowest rating. Method of Determining Stability of the Compositions Leave-on compositions are kept at 40° C. at 60% RH to visually assess any precipitation on day 1 and after a week of storage at these conditions.
Then, ten experts are asked to rate each hair switch in terms of frizz, clean feel, and greasy feel, based on a 5 point scale, 5 being the highest and 1 being the lowest rating.
Then, ten experts are asked to rate each hair switch in terms of frizz, clean feel, smooth feel and greasy feel, based on a 5 point scale, 5 being the highest and 1 being the lowest rating.

Row | SMILES | Results of Hair Switch Rating (frizz protection, clean feel, greasy feel) in words | Results of Hair Switch Rating (frizz protection, clean, smooth, greasy feel) in words
1 | O=C(O)c1ccccc1O [Salicylic acid] | provide frizz protection with clean feel and without greasy feel negative | provide frizz protection with clean and smooth feel and without greasy feel negative
2 | O=S(=O)(O)c1ccc(O)cc1 [4-Hydroxybenzenesulphonic acid] | provide frizz protection with clean feel and without greasy feel negative | provide frizz protection with clean and smooth feel and without greasy feel negative
3 | CC(C)CCCCCCCCCCCCCCCOC(=O)CCCCCCCCCCCCCCC(C)C [Isostearyl isostearate] | provide frizz protection with clean feel and without greasy feel negative | provide frizz protection with clean, smooth feel and without greasy feel negative
4 | O=C(O)c1ccc(O)cc1O [2,4-Dihydroxybenzoic acid] | provide frizz protection with clean feel and without greasy feel negative | provide frizz protection with clean and smooth feel and without greasy feel negative
5 | CCCCCCCCC(CO)CCCCCC (centres unmarked) [2-Hexyl-1-decanol] | provide frizz protection with clean feel and without greasy feel negative | provide frizz protection with clean, smooth feel and without greasy feel negative
6 | O=C(O)c1cc(Cl)ccc1O [5-Chlorosalicylic acid] | provide frizz protection with clean feel and without greasy feel negative | provide frizz protection with clean and smooth feel and without greasy feel negative
7 | O=C(OCCO)c1ccccc1O [2-Hydroxyethyl salicylate] | provide frizz protection with clean feel and without greasy feel negative | provide frizz protection with clean, smooth feel and without greasy feel negative
